Test results from ChEMBL document CHEMBL4651402, “Screening of ~5500 FDA-approved drugs and clinical candidates for anti-SARS-CoV-2 activity” (2021).

Columns and labels:
in vitro = conditions: chlorocebus sabaeus
SARS-CoV-2 [1] = assay: microbe, parasite or virus in culture; conditions: Severe acute respiratory syndrome coronavirus 2, Vero C1008, 48 h
SARS-CoV-2 [2] = assay: microbe, parasite or virus in culture; assay type: functional, organism-based, Chlorocebus sabaeus, Vero C1008; conditions: Severe acute respiratory syndrome coronavirus 2, Vero C1008, 48 h
[3] = Vero E6 (Vero C1008) cells, CC50
[4] = Vero E6 (Vero C1008) cells, pCC50

SMILES | CC50 at 48 h (in vitro; [3]) | CC50 at 48 h (in vitro; [4]) | IC50 (SARS-CoV-2 [1]) | IC50 (SARS-CoV-2 [1]; read-out: pIC50 (converted)) | IC50 (SARS-CoV-2 [2]; read-out: IC50) | IC50 (SARS-CoV-2 [2]; read-out: pIC50 (converted)) | CC50 at 48 h (in vitro; vero c1008, CC50) | CC50 at 48 h (in vitro; vero c1008, pCC50)
CC(C)[C@H](C(=O)Nc1ccc(C(=O)NO)cc1)c1ccccc1 [AR-42] | 0.851 µM | 0.851 µM | > 20 µM | > 20 µM | – | – | – | –
CC[C@H](C(=O)[C@H](C)[C@@H](O)[C@H](C)CCc1ccc(C)c(O)c1C(=O)O)[C@@H]1O[C@@](CC)([C@H]2CC[C@](O)(CC)[C@@H](C)O2)C[C@@H]1C | ~5.37 µM | ~5.37 µM | > 0.631 µM | > 0.631 µM | 1.07 µM | 1.07 µM | – | –
N=C(N)c1ccc(C=C2c3ccccc3-c3ccccc32)cc1 [PARANYLINE] | 2.92 µM | 2.88 µM | 3.47 µM | 3.47 µM | > 100 µM | > 100 µM | – | –
CCCCN(CCCC)CCC(O)c1cc2c(Cl)cc(Cl)cc2c2cc(C(F)(F)F)ccc12 (centres undefined) [HALOFANTRINE] | 11.5 µM | 11.5 µM | 9.55 µM | 9.55 µM | ~9.12 µM | ~9.12 µM | – | –
O=C(Nc1ccccc1)OCC(CN1CCCCC1)OC(=O)Nc1ccccc1 (centres undefined) [DIPERODON] | > 25.1 µM | > 25.1 µM | 15.1 µM | 15.1 µM | > 25.1 µM | > 25.1 µM | – | –
CN1C2CCC1CC(OC(c1ccccc1)c1ccc(Cl)cc1)C2 (centres undefined) | 8.13 µM | 8.13 µM | 9.77 µM | 9.77 µM | > 100 µM | > 100 µM | – | –
CN1CCN(CCCN2c3ccccc3Sc3ccccc32)CC1 [PERAZINE] | 14.6 µM | 14.5 µM | 14 µM | 13.8 µM | > 100 µM | > 100 µM | – | –
c1ccc(C(O[C@H]2CCCN(CCc3ccc4c(c3)OCO4)C2)c2ccccc2)cc1 | > 100 µM | > 100 µM | > 100 µM | > 100 µM | 87.1 µM | 87.1 µM | – | –
CNC(=O)[C@@H](c1ccccc1)N1CCc2cc(OC)c(OC)cc2[C@@H]1CCc1ccc(C(F)(F)F)cc1 [ALMOREXANT] | 21.4 µM | 21.4 µM | 18.6 µM | 18.6 µM | > 25.1 µM | > 25.1 µM | – | –
CN1CCN(CCCN2c3ccccc3Sc3ccc(C(F)(F)F)cc32)CC1 [TRIFLUOPERAZINE] | 7.94 µM | 7.94 µM | 6.46 µM | 6.46 µM | > 100 µM | > 100 µM | – | –
CC[C@@H]1C(=O)N(C)c2cnc(Nc3ccc(C(=O)N[C@H]4CC[C@H](N5CCN(CC6CC6)CC5)CC4)cc3OC)nc2N1C(C)C [VOLASERTIB] | 0.234 µM | 0.234 µM | > 50.1 µM | > 50.1 µM | > 50.1 µM | > 50.1 µM | – | –
CC[C@@H]1C(=O)N(C)c2cnc(Nc3ccc(C(=O)NC4CCN(C)CC4)cc3OC)nc2N1C1CCCC1 [BI-2536] | 0.603 µM | 0.603 µM | – | – | – | – | – | –
CNCCC=C1c2ccccc2CCc2ccccc21 [NORTRIPTYLINE] | – | – | 15.9 µM | 15.8 µM | > 100 µM | > 100 µM | 24 µM | 24 µM
CN(C)CCCN1c2ccccc2Sc2ccccc21 [PROMAZINE] | 25.7 µM | 25.7 µM | 16.2 µM | 16.2 µM | > 100 µM | > 100 µM | – | –
Clc1cnn(CCCCN2CCN(c3ncccn3)CC2)c1 [LESOPITRON] | > 100 µM | > 100 µM | 2.34 µM | 2.34 µM | > 100 µM | > 100 µM | – | –
CN1CCC(COc2cnc(-c3cccc(Cn4nc(-c5cccc(C#N)c5)ccc4=O)c3)nc2)CC1 [TEPOTINIB] | 5.75 µM | 5.75 µM | > 100 µM | > 100 µM | > 100 µM | > 100 µM | – | –
CN(C)CCCN1c2ccccc2CCc2ccc(Cl)cc21 [CLOMIPRAMINE] | 16 µM | 15.8 µM | – | – | – | – | – | –

SMILES | CC50 at 48 h (in vitro; [3]) | CC50 at 48 h (in vitro; [4]) | IC50 (SARS-CoV-2 [1]) | IC50 (SARS-CoV-2 [1]; read-out: pIC50 (converted)) | IC50 (SARS-CoV-2 [2]; read-out: IC50) | IC50 (SARS-CoV-2 [2]; read-out: pIC50 (converted)) | CC50 at 48 h (in vitro; vero c1008, CC50) | CC50 at 48 h (in vitro; vero c1008, pCC50)
CCC(C)n1ncn(-c2ccc(N3CCN(c4ccc(OCC5COC(Cn6cncn6)(c6ccc(Cl)cc6Cl)O5)cc4)CC3)cc2)c1=O (centres undefined) [ITRACONAZOLE] | > 100 µM | > 100 µM | > 100 µM | > 100 µM | – | – | – | –
CO/N=C(\C(=O)N[C@@H]1C(=O)N2C(C(=O)OC(C)OC(C)=O)=C(COC(N)=O)CS[C@H]12)c1ccco1 (some centres undefined) [CEFUROXIME AXETIL] | > 20 µM | > 20 µM | – | – | > 20 µM | > 20 µM | – | –
O=C1CCc2ccc(OCCCCN3CCN(c4cccc(Cl)c4Cl)CC3)cc2N1 [ARIPIPRAZOLE] | 11.4 µM | 11.2 µM | – | – | – | – | – | –
CC1(C)S[C@@H]2[C@H](NC(=O)C(C(=O)O)c3ccccc3)C(=O)N2[C@H]1C(=O)O (some centres undefined) [CARBENICILLIN] | > 20 µM | > 20 µM | – | – | > 20 µM | > 20 µM | – | –
CCOc1cc2ncc(C#N)c(Nc3ccc(OCc4ccccn4)c(Cl)c3)c2cc1NC(=O)/C=C/CN(C)C [NERATINIB] | > 10 µM | > 10 µM | – | – | > 10 µM | > 10 µM | – | –
CN1[C@@H]2CC[C@H]1CC(OC(c1ccccc1)c1ccccc1)C2 (some centres undefined) | ~46.8 µM | ~46.8 µM | – | – | – | – | – | –
CCOC(=O)C1=C(C)NC(C)=C(C(=O)OCC)C1c1ccccc1/C=C/C(=O)OC(C)(C)C [LACIDIPINE] | 7.24 µM | 7.24 µM | > 10 µM | > 10 µM | – | – | – | –
CCC1=C[C@@H]2CN(C1)Cc1c([nH]c3ccccc13)[C@@](C(=O)OC)(c1cc3c(cc1OC)N(C)[C@H]1[C@@](O)(C(=O)OC)[C@H](OC(C)=O)[C@]4(CC)C=CCN5CC[C@]31[C@@H]54)C2 [VINORELBINE] | 14.5 µM | 14.5 µM | – | – | > 20 µM | > 20 µM | – | –
COc1ccc(CCN2CCC(Nc3nc4ccccc4n3Cc3ccc(F)cc3)CC2)cc1 [ASTEMIZOLE] | 7.5 µM | 7.41 µM | – | – | – | – | – | –
O=C1OC2(c3ccc(O)cc3Oc3cc(O)ccc32)c2ccccc21 [FLUORESCEIN] | > 20 µM | > 20 µM | – | – | > 0.309 µM | > 0.309 µM | – | –
CN(C)C(=O)C(CCN1CCC(O)(c2ccc(Cl)cc2)CC1)(c1ccccc1)c1ccccc1 [LOPERAMIDE] | ~22 µM | ~21.9 µM | – | – | – | – | – | –
COc1ccc(C[C@@H]2c3cc(OC)c(OC)cc3CC[N@+]2(C)CCC(=O)OCCCCCOC(=O)CC[N@@+]2(C)CCc3cc(OC)c(OC)cc3[C@H]2Cc2ccc(OC)c(OC)c2)cc1OC | > 20 µM | > 20 µM | – | – | > 20 µM | > 20 µM | – | –
CSc1ccc2c(c1)N(CCC1CCCCN1C)c1ccccc1S2 (centres undefined) [THIORIDAZINE] | ~6.38 µM | ~6.31 µM | – | – | – | – | – | –
CCOC(=O)O[C@]1(C(=O)OCCl)CC[C@H]2[C@@H]3CCC4=CC(=O)C=C[C@]4(C)[C@H]3[C@@H](O)C[C@@]21C [LOTEPREDNOL ETABONATE] | > 20 µM | > 20 µM | – | – | > 20 µM | > 20 µM | – | –
CN(C)C/C=C(\c1ccc(Br)cc1)c1cccnc1 | > 10 µM | > 10 µM | > 20 µM | > 20 µM | – | – | – | –
OCCN1CCN(CCCN2c3ccccc3Sc3ccc(C(F)(F)F)cc32)CC1 [FLUPHENAZINE] | 7.76 µM | 7.76 µM | – | – | – | – | – | –
